According to patent US9951068B2 (Proximagen Limited, priority 2013, dated 2018):
Where a name gives a salt, the structure may show the parent alone.

These compounds were tested against purified recombinantly expressed human SSAO (Homo sapiens (Human), UniProt Q16853) (assay: SSAO enzyme inhibition assay (HRP-coupled hydrogen peroxide detection or 14C-benzaldehyde detection, benzylamine substrate)). Conditions: SSAO inhibitory activity, human recombinant SSAO, RT.
purified recombinantly expressed human SSAO, sequence (Q16853 29-763): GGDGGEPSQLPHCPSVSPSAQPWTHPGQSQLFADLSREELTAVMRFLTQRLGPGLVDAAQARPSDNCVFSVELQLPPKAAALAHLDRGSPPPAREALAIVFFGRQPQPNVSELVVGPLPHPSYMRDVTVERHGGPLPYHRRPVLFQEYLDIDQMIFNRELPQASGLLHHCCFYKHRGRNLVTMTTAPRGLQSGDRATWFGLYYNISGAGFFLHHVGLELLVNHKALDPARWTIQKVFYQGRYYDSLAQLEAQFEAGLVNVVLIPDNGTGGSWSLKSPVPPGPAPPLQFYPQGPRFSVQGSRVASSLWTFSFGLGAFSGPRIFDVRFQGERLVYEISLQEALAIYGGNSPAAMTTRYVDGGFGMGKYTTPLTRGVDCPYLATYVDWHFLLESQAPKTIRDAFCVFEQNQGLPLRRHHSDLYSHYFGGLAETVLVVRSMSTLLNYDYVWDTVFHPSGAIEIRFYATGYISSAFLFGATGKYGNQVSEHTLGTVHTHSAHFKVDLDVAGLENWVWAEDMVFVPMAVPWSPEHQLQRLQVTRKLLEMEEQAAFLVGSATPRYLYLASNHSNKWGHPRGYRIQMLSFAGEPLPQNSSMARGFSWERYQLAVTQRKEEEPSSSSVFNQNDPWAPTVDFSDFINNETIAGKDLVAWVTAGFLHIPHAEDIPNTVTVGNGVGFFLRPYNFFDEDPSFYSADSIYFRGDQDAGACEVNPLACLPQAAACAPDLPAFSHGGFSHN
Format: biochemical
Protocol: All primary assays were performed at RT. with purified recombinantly expressed human SSAO. Enzyme was prepared essentially as described in Öhman et al. (Protein Expression and Purification 46 (2006) 321-331). In addition, secondary- and selectivity assays were performed using SSAO prepared from various tissues or purified rat recombinant SSAO. The enzyme activity was assayed with benzylamine as substrate by measuring either benzaldehyde production, using ^14C-labeled substrate, or by utilizing the production of hydrogen peroxide in a horseradish peroxidase (HRP) coupled reaction. Briefly, test compounds were dissolved in dimethyl sulfoxide (DMSO) to a concentration of 10 mM. Dose-response measurements were assayed by either creating 1:10 serial dilutions in DMSO to produce a 7 point curve or by making 1:3 serial dilutions in DMSO to produce 11 point curves.
In a horseradish peroxidase (HRP) coupled reaction, hydrogen peroxide oxidation of 10-acetyl-3,7-dihydroxyphenoxazine produced resorufin, which is a highly fluorescent compound (Zhout and Panchuk-Voloshina. Analytical Biochemistry 253 (1997) 169-174; Amplex® Red Hydrogen Peroxide/peroxidase Assay kit, Invitrogen A22188). Enzyme and compounds in 50 mM sodium phosphate, pH 7.4 were set to pre-incubate in flat-bottomed microtiter plates for approximately 15 min before initiating the reaction by addition of a mixture of HRP, benzylamine and Amplex reagent. Benzylamine concentration was fixed at a concentration corresponding to the Michaelis constant, determined using standard procedures. Fluorescence intensity was then measured at several time points during 1-2 h, exciting at 544 nm and reading the emission at 590 nm. For the human SSAO assay final concentrations of the reagents in the assay wells were: SSAO enzyme 1 ug/ml, benzylamine 100 uM, Amplex reagent 20 uM, HRP 0.1 U/mL and varying concentrations of test compound. The inhibition was measured as % decrease of the signal compared to a control without inhibitor (only diluted DMSO). The background signal from a sample containing no SSAO enzyme was subtracted from all data points. Data was fitted to a four parameter logistic model and IC50 values were calculated using the GraphPad Prism 4 or XLfit 4 programs.
SSAO activity was assayed using 14C-labeled benzylamine and analysed by measuring radioactive benzaldehyde. In a white 96-well optiplate (Packard), 20 uL of diluted test compound was pre-incubated at room temperature with 20 uL SSAO enzyme for approximately 15 min with continuous agitation. All dilutions were made with PBS. The reaction was initiated by adding 20 uL of the benzylamine substrate solution containing [7-14C] Benzylamine hydrochloride (CFA589, GE Healthcare). The plate was incubated for 1 h as above after which the reaction was stopped by acidification (10 uL 1M aq HCl). Then 90 uL Micro Scint-E solution (Perkin-Elmer) was added to each well and the plate was continuously mixed for 15 min. Phase separation occurred instantly and activity was read in a Topcount scintillation counter (Perkin-Elmer). In the final reaction well, the human recombinant SSAO concentration was 10 ug/ml. In order to optimize sensitivity, the substrate concentration was decreased as compared to the HRP coupled assay in order to get a higher fraction of radioactive product. In the human SSAO assay, benzylamine concentration was 40 uM (0.2 uCi/mL). Data was analysed as above.
With O=C1CN(c2ncc(-c3nc4ccncc4n3-c3ccc(Cl)cc3)cn2)CCN1 [Example 13, 4-{5-[3-(4-Chlorophenyl)-3H-imidazo[4,5-c]pyridin-2-yl]pyrimidin-2-yl}piperazin-2-one] the IC50 was < 0.05 µM. For CS(=O)(=O)N1CCN(c2ccc(-c3nc4ccncc4n3-c3ccc(F)cc3)cn2)CC1 [Example 89, 1-{5-[3-(4-Fluorophenyl)-3H-imidazo[4,5-c]pyridin-2-yl]pyridin-2-yl}-4-methanesulfonylpiperazine], the IC50 was < 0.05 µM. For Clc1ccc(-n2c(-c3ccccn3)cc3ccncc32)cc1 [Example 121, 2-[1-(4-Chlorophenyl)-1H-pyrrolo[2,3-c]pyridin-2-yl]pyridine], the IC50 was < 0.05 µM. O=c1cc(-c2nc3ccncc3n2-c2ccc(F)cc2)ccn1C1CC1 [Example 115, 1-Cyclopropyl-4-[3-(4-fluorophenyl)-3H-imidazo[4,5-c]pyridin-2-yl]-1,2-dihydropyridin-2-one] was tested, and the IC50 was < 0.05 µM. For Clc1ccc(-n2c(-c3cnc(N4CCOCC4)nc3)cc3ccncc32)cc1 [Example 127, 4-{5-[1-(4-Chlorophenyl)-1H-pyrrolo[2,3-c]pyridin-2-yl]pyrimidin-2-yl}morpholine], the IC50 was < 0.05 µM. In the case of Cc1nc(C)c(-c2cc3ccncc3n2-c2ccc(Cl)cc2)[nH]1 [Example 126, 5-[1-(4-Chlorophenyl)-1H-pyrrolo[2,3-c]pyridin-2-yl]-2,4-dimethyl-1H-imidazole], the IC50 is reported as < 0.05 µM. CN(C)c1ncc(-c2nc3ccncc3n2-c2ccc(Cl)cc2F)cn1 [Example 84, 5-[3-(4-Chloro-2-fluorophenyl)-3H-imidazo[4,5-c]pyridin-2-yl]-N,N-dimethylpyrimidin-2-amine] was tested, and the IC50 was < 0.05 µM. With Cc1cc(N(C)C)ncc1-c1nc2ccncc2n1-c1ccc(F)cc1 [Example 111, 5-[3-(4-Fluorophenyl)-3H-imidazo[4,5-c]pyridin-2-yl]-N,N,4-trimethylpyridin-2-amine] the IC50 was 0.2 to 1.2 µM. For Clc1ccc(-n2c(-c3cnc(NCC4CC4)nc3)cc3ccncc32)cc1 [Example 149, 5-[1-(4-Chlorophenyl)-1H-pyrrolo[2,3-c]pyridin-2-yl]-N-(cyclopropylmethyl)pyrimidin-2-amine], the IC50 was < 0.05 µM. Clc1ccc(-n2c(-c3cncnc3)cc3ccncc32)cc1 [Example 123] was tested, and the IC50 was < 0.05 µM. Fc1ccc(-n2c(-c3ccc(OC4CCOC4)nc3)nc3ccncc32)cc1 (stereo not shown) [Example 112, 5-[3-(4-Fluorophenyl)-3H-imidazo[4,5-c]pyridin-2-yl]-2-(oxolan-3-yloxy)pyridine] was tested, and the IC50 was < 0.05 µM.

These compounds were tested against human ether a go-go related gene (hERG) K+ channel (Homo sapiens (Human), UniProt Q12809) (assay: hERG assay, IonWorks patch clamp electrophysiology). Conditions: Chinese Hamster Lung cell line stably expressing hERG; max assay concentration 11 uM.
human ether a go-go related gene (hERG) K+ channel, sequence (Q12809 whole entry): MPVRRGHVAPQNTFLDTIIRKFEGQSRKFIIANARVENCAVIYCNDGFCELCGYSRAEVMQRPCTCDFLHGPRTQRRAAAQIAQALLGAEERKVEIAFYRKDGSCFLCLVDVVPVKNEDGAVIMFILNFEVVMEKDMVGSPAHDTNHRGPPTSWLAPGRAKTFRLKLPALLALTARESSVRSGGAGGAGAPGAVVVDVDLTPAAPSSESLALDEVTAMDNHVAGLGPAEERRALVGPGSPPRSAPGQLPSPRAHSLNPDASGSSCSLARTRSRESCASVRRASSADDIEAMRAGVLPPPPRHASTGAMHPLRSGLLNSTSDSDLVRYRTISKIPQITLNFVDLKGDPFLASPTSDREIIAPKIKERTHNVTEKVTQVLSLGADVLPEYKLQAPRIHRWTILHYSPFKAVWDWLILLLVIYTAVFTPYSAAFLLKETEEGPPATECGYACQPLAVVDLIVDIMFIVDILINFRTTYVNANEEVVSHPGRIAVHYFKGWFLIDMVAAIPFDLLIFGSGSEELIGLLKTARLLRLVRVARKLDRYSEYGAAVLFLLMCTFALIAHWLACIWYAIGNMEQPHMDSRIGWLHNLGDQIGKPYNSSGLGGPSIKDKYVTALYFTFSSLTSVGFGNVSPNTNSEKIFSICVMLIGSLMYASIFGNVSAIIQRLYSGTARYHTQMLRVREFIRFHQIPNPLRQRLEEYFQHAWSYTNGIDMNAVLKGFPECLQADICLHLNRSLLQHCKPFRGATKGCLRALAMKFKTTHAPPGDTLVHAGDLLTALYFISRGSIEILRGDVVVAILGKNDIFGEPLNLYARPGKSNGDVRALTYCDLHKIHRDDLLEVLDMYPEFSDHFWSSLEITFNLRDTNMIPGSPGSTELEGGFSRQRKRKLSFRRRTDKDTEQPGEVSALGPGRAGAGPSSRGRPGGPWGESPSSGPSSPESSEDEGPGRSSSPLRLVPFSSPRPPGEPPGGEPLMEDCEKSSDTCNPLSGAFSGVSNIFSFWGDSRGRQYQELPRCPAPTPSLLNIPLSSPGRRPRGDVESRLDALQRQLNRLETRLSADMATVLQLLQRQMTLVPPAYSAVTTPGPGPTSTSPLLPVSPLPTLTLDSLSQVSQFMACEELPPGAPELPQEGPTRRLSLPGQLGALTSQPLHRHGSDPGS
Format: cell-based
Protocol: Compounds of the invention were tested for inhibition of the human ether a go-go related gene (hERG) K^+ channel using IonWorks patch clamp electrophysiology. 8 Point concentration-response curves were generated on two occasions using 3-fold serial dilutions from the maximum assay concentration (11 uM). Electrophysiological recordings were made from a Chinese Hamster Lung cell line stably expressing the full length hERG channel. Single cell ion currents were measured in the perforated patch clamp configuration (100 ug/mL amphoterocin) at room temperature using an IonWorks Quattro instrument. The internal solution contained 140 mM KCl, 1 mM MgCl2, 1 mM EGTA and 20 mM HEPES and was buffered to pH 7.3. The external solution contained 138 mM NaCl, 2.7 mM KCl, 0.9 mM CaCl2, 0.5 mM MgCl2, 8 mM Na2HPO4 and 1.5 mM KH2PO4, and was buffered to pH 7.3. […] This sequence was repeated 5 times at a frequency of 0.25 Hz. Currents were measured from the tail step at the 5th pulse, and referenced to the holding current. Compounds were incubated for 6-7 min prior to a second measurement of the hERG signal using an identical pulse train. […] A control compound (quinidine) was used (see Table 20 below).
For Cc1ccc(-n2c(-c3ccc(N4CCOCC4)nc3)nc3ccncc32)cn1 [Example 64, 4-{5-[3-(6-Methylpyridin-3-yl)-3H-imidazo[4,5-c]pyridin-2-yl]pyridin-2-yl}morpholine], the IC50 was > 10 µM. For O=C1CN(c2ncc(-c3nc4ccncc4n3-c3ccc(F)cc3)cn2)CCN1 [Example 12, 4-{5-[3-(4-Fluorophenyl)-3H-imidazo[4,5-c]pyridin-2-yl]pyrimidin-2-yl}piperazin-2-one], the IC50 was > 10 µM. Nc1ccc(-c2nc3ccncc3n2-c2ccc(Cl)cc2)cn1 [Example 110, 5-[3-(4-Chlorophenyl)-3H-imidazo[4,5-c]pyridin-2-yl]pyridin-2-amine] was tested, and the IC50 was > 10 µM. For NC(=O)NC1CCN(c2ccc(-c3nc4ccncc4n3-c3ccc(Cl)cc3)cn2)CC1 [Example 91, (1-{5-[3-(4-Chlorophenyl)-3H-imidazo[4,5-c]pyridin-2-yl]pyridin-2-yl}piperidin-4-yl)urea; bis(trifluoroacetic acid)], the IC50 was > 10 µM. Clc1ccc(-n2c(-c3ccncc3)nc3ccncc32)cc1 [Example 2, 4-[3-(4-Chlorophenyl)-3H-imidazo[4,5-c]pyridin-2-yl]pyridine] was tested, and the IC50 was > 10 µM. With O=C1CN(c2ncc(-c3nc4ccncc4n3-c3ccc(Cl)cc3)cn2)CCN1 [Example 13, 4-{5-[3-(4-Chlorophenyl)-3H-imidazo[4,5-c]pyridin-2-yl]pyrimidin-2-yl}piperazin-2-one] the IC50 was > 10 µM. CS(=O)(=O)N1CCN(c2ccc(-c3nc4ccncc4n3-c3ccc(F)cc3)cn2)CC1 [Example 89, 1-{5-[3-(4-Fluorophenyl)-3H-imidazo[4,5-c]pyridin-2-yl]pyridin-2-yl}-4-methanesulfonylpiperazine] was tested, and the IC50 was > 10 µM. Fc1cc(Cl)ccc1-n1c(-c2cnc(N3CCOCC3)nc2)nc2ccncc21 [Example 77, 4-{5-[3-(4-Chloro-2-fluorophenyl)-3H-imidazo[4,5-c]pyridin-2-yl]pyrimidin-2-yl}morpholine] was tested, and the IC50 was > 10 µM. For Cc1ccc(-n2c(-c3cnc(N4CCOCC4)nc3)nc3ccncc32)c(F)c1 [Example 53, 4-{5-[3-(2-Fluoro-4-methylphenyl)-3H-imidazo[4,5-c]pyridin-2-yl]pyrimidin-2-yl}morpholine], the IC50 was > 10 µM. c1ccc(-n2c(-c3cnc(N4CCOCC4)nc3)nc3ccncc32)cc1 [Example 95, 4-(5-{3-Phenyl-3H-imidazo[4,5-c]pyridin-2-yl}pyrimidin-2-yl)morpholine] was tested, and the IC50 was > 10 µM. In the case of COCCN(C)c1ncc(-c2nc3ccncc3n2-c2ccc(C)cc2)cn1 [Example 117, N-(2-Methoxyethyl)-N-methyl-5-[3-(4-methylphenyl)-3H-imidazo[4,5-c]pyridin-2-yl]pyrimidin-2-amine], the IC50 is reported as > 10 µM. Fc1cc(Cl)ccc1-n1c(-c2ccc(N3CCOCC3)nc2)nc2ccncc21 [Example 80, 4-{5-[3-(4-Chloro-2-fluorophenyl)-3H-imidazo[4,5-c]pyridin-2-yl]pyridin-2-yl}morpholine] was tested, and the IC50 was > 10 µM. In the case of Fc1ccc(-n2c(-c3cnc(N4CCOCC4)c(F)c3)nc3ccncc32)cc1 [Example 98, 4-{3-Fluoro-5-[3-(4-fluorophenyl)-3H-imidazo[4,5-c]pyridin-2-yl]pyridin-2-yl}morpholine], the IC50 is reported as > 10 µM. With Clc1ccc(-n2c(-c3cnc(N4CCNCC4)o3)nc3ccncc32)cc1 [Example 18, 1-{5-[3-(4-Chlorophenyl)-3H-imidazo[4,5-c]pyridin-2-yl]-1,3-oxazol-2-yl}piperazine dihydrochloride] the IC50 was > 10 µM. For CN(C)c1ccc(-c2nc3ccncc3n2-c2ccc(F)cc2)cn1 [Example 71, 5-[3-(4-Fluorophenyl)-3H-imidazo[4,5-c]pyridin-2-yl]-N,N-dimethylpyridin-2-amine], the IC50 was > 10 µM. For Fc1ccc(-n2c(-c3ccc(N4CCOCC4)nc3)nc3ccncc32)cc1 [Example 54, 4-{5-[3-(4-Fluorophenyl)-3H-imidazo[4,5-c]pyridin-2-yl]pyridin-2-yl}morpholine], the IC50 was > 10 µM. With Clc1ccc(-n2c(-c3ccc(CN4CCOCC4)nc3)nc3ccncc32)cc1 [Example 3, 4-({5-[3-(4-Chlorophenyl)-3H-imidazo[4,5-c]pyridin-2-yl]pyridin-2-yl}methyl)morpholine] the IC50 was > 10 µM. For Cc1ccc(-n2c(-c3cnc(N4CCOCC4)nc3)nc3ccncc32)cc1 [Example 57, 4-{5-[3-(4-Methylphenyl)-3H-imidazo[4,5-c]pyridin-2-yl]pyrimidin-2-yl}morpholine], the IC50 was > 10 µM. Fc1ccc(-n2c(-c3cnc(NC4CCOCC4)nc3)nc3ccncc32)cc1 [Example 20, 5-[3-(4-Fluorophenyl)-3H-imidazo[4,5-c]pyridin-2-yl]-N-(oxan-4-yl)pyrimidin-2-amine] was tested, and the IC50 was > 10 µM. With Cc1ccc(-n2c(-c3ccc(N4CCOCC4)nc3)nc3ccncc32)cc1 [Example 63, 4-{5-[3-(4-Methylphenyl)-3H-imidazo[4,5-c]pyridin-2-yl]pyridin-2-yl}morpholine] the IC50 was > 10 µM.
